{"source": "BindingDB's records for doi:10.1016/j.bioorg.2014.07.011", "about": "(Shenyang Pharmaceutical University, 2014)", "assay_in_all_cases": "HTRF kinase assay", "conditions_in_all_cases": "pH 7; 25 °C", "key": {"[1]": {"molecular_target": "Hepatocyte growth factor receptor (Homo sapiens, UniProt P08581)", "sequence (P08581 whole entry)": "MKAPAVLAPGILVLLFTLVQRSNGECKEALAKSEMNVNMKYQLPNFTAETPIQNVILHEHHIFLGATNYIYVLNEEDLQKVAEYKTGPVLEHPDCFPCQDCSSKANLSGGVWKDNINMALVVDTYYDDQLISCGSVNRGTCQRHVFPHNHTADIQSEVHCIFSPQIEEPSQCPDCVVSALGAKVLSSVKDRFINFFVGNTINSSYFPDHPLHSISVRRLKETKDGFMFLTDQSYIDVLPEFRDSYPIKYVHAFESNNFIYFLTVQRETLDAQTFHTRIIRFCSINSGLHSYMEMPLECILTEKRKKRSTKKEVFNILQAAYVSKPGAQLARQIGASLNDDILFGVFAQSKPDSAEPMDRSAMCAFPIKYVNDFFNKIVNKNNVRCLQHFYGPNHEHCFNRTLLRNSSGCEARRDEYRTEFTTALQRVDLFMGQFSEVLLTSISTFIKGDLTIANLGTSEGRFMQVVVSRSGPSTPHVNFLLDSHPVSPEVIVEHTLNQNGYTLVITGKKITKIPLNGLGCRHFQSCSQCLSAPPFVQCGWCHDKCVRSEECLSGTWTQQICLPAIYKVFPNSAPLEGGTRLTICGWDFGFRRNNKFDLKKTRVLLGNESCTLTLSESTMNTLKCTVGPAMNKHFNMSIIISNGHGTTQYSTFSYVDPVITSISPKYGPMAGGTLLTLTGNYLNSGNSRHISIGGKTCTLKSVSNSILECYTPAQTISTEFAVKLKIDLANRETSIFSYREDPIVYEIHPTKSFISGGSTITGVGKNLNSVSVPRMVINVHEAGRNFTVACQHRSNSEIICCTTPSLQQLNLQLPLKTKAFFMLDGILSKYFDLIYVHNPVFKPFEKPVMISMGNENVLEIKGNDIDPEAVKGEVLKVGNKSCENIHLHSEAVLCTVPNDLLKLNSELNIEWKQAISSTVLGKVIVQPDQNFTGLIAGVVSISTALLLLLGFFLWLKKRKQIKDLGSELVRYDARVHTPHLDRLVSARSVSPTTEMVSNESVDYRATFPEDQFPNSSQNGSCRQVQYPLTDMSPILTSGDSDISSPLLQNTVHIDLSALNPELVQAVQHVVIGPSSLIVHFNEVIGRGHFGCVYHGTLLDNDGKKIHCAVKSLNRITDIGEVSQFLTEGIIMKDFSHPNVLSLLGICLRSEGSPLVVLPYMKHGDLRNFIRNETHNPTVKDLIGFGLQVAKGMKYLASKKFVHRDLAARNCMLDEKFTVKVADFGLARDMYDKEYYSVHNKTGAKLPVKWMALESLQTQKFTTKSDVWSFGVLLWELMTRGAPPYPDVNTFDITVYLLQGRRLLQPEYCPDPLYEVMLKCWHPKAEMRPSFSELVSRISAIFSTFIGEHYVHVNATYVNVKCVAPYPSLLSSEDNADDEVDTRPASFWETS", "protocol": "The c-Met kinase activity was evaluated by homogeneous time-resolved fluorescence (HTRF) assays. In a 384-well plate, 20 µg/mL (Glue, Tyr) 4:1 was added, followed by the addition of 50 µL of 10 mM ATP solution diluted in kinase reaction buffer (50 mM HEPES, pH 7.0, […], and 0.1% NaN3) into each well. Various concentrations of compounds diluted in 10 µL of 1% DMSO (v/v) […]. The reaction was initiated by the addition of purified c-Met kinase diluated in 39 µL of kinase reaction buffer solution. The reaction was incubated for 30 min at 25 °C and stopped by the addition of 5 µL of Streptavidin-XL665 and 5 µL Tk Antibody Cryptate working solution to all of the wells."}, "[2]": {"molecular_target": "T1, Receptor-type tyrosine-protein kinase FLT3 (Homo sapiens, UniProt P36888)", "T1 sequence (P36888 whole entry)": "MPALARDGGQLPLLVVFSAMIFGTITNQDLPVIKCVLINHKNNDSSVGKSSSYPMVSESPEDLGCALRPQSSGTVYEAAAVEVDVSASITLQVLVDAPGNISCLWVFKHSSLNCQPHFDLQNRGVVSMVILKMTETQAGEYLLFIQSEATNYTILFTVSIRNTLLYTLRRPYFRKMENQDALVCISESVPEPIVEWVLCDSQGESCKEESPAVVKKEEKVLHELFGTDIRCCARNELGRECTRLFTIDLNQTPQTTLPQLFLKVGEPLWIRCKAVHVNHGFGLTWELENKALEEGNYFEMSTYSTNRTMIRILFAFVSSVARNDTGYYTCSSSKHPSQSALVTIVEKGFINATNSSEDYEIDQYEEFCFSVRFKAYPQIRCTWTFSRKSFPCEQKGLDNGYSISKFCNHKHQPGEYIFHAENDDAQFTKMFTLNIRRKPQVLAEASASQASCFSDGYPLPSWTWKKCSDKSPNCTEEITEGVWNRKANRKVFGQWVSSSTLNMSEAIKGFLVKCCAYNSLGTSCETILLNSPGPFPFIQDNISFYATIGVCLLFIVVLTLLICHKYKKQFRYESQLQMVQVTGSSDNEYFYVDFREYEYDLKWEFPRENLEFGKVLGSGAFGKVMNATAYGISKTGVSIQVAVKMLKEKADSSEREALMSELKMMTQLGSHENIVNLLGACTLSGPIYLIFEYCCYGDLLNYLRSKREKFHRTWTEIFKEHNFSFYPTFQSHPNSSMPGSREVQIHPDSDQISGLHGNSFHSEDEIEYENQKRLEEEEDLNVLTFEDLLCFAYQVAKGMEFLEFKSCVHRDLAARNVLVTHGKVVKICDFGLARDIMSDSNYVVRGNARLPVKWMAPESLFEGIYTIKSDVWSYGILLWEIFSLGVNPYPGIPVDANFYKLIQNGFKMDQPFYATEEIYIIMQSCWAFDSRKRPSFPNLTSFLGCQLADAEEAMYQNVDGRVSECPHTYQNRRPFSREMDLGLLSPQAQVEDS"}, "[3]": {"molecular_target": "T2, Mast/stem cell growth factor receptor Kit [1-973] (Homo sapiens, UniProt P10721)", "T2 construct": "1-973", "T2 sequence (P10721 1-973)": "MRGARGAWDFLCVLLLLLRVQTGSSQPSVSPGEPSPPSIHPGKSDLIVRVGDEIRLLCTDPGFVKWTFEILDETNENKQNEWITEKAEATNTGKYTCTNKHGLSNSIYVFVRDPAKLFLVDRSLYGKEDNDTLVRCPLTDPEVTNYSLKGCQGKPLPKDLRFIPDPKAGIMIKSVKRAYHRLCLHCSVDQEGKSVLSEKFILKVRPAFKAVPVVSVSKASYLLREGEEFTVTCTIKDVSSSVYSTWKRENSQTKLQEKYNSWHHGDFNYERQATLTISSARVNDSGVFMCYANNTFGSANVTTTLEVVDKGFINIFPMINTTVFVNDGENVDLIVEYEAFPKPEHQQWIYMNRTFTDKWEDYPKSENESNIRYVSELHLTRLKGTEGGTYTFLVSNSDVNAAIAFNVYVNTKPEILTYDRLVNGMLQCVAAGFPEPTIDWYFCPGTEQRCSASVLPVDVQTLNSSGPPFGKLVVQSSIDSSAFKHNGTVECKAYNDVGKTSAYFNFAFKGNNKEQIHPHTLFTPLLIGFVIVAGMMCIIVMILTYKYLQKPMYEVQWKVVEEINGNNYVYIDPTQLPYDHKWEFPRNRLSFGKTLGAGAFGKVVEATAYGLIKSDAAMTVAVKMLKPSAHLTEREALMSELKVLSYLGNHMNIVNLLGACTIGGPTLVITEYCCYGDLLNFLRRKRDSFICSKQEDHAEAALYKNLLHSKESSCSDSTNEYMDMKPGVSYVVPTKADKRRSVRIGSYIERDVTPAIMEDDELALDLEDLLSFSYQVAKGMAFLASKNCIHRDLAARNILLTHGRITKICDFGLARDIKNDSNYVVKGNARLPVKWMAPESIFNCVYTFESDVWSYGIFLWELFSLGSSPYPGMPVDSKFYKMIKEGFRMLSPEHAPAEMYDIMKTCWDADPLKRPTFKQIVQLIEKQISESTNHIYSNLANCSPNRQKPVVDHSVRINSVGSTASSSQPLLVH"}, "[4]": {"molecular_target": "T3, Platelet-derived growth factor receptor alpha [1-973] (Homo sapiens, UniProt P16234)", "T3 construct": "1-973", "T3 sequence (P16234 1-973)": "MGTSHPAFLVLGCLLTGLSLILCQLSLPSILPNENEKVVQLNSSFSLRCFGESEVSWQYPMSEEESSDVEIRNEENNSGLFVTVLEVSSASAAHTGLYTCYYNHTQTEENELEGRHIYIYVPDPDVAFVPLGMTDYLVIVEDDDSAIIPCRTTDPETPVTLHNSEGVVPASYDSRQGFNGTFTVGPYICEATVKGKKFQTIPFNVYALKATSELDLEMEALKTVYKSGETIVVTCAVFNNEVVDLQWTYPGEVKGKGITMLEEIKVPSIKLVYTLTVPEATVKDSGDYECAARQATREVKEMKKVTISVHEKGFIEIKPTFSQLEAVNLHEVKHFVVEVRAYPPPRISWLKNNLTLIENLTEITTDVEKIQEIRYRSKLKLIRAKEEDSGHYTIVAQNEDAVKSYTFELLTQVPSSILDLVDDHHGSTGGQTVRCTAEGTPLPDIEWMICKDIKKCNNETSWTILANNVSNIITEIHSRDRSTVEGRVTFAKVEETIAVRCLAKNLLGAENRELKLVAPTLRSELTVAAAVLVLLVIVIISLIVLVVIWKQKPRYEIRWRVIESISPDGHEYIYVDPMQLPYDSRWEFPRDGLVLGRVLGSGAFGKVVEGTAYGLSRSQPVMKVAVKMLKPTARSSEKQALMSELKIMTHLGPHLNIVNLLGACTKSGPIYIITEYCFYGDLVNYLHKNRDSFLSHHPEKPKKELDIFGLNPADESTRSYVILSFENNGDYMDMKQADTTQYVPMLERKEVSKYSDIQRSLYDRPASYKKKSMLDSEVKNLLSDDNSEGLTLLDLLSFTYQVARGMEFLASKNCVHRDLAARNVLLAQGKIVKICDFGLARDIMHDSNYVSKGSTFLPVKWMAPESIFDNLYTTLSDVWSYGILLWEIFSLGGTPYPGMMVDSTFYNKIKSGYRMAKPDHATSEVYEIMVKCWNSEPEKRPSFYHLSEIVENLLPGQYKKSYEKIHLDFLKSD"}, "[5]": {"molecular_target": "Vascular endothelial growth factor receptor 1 (Homo sapiens, UniProt P17948)"}, "[6]": {"molecular_target": "Vascular endothelial growth factor receptor 2 (Homo sapiens, UniProt P35968)"}, "[7]": {"molecular_target": "Macrophage-stimulating protein receptor (Homo sapiens, UniProt Q04912)", "sequence (Q04912 25-304 limits assumed)": "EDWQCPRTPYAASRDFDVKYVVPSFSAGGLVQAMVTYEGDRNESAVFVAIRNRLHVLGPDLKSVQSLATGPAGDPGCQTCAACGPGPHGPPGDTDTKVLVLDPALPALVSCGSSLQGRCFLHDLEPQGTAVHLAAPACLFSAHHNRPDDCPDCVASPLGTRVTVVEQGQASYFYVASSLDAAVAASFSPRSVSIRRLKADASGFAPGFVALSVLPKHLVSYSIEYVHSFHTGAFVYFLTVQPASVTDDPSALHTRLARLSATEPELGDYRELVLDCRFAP", "sequence (Q04912 310-1400 limits assumed)": "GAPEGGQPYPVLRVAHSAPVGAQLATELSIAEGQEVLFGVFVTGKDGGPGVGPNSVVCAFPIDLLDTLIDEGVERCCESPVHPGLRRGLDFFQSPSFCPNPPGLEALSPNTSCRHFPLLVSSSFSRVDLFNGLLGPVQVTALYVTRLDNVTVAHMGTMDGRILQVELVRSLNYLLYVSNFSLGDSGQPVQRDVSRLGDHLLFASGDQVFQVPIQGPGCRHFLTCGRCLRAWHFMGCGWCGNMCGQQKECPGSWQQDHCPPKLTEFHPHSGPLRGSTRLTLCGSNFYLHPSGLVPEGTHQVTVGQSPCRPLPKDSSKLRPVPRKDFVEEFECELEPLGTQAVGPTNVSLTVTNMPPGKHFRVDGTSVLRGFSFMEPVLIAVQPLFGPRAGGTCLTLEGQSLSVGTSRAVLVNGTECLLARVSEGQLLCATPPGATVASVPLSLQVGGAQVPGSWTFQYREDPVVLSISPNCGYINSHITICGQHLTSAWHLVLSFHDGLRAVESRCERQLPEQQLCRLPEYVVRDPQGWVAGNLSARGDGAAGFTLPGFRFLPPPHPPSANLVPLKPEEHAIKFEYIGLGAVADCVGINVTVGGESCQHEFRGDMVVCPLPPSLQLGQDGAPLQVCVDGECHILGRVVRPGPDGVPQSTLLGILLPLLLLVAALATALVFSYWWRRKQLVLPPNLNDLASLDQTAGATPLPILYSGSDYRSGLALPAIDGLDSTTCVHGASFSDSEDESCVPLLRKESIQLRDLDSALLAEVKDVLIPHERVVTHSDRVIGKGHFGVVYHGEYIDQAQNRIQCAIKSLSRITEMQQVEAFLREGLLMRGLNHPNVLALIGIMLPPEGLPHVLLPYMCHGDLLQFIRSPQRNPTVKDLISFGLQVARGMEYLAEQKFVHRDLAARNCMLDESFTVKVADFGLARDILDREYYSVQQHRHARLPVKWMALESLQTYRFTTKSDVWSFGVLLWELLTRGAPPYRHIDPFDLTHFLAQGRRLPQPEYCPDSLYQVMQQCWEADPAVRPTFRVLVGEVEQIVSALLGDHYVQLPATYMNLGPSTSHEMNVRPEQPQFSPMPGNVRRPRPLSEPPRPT"}, "[8]": {"molecular_target": "T4, Epidermal growth factor receptor [1-973] (Homo sapiens, UniProt P00533)", "T4 construct": "1-973"}}}
{"smiles": "COc1cc2c(Oc3ccc(N=Cc4c(O)n(-c5ccccc5C(F)(F)F)c(=O)n4C)cc3F)ccnc2cc1OCCCN1CCCC1", "note": "[(E)-5-(((3-fluoro-4-((6-methoxy-7-(3-(pyrrolidin-1-yl)propoxy)quinolin-4-yl)oxy)phenyl)amino)methylene)-1-methyl-3-(2-(trifluoromethyl)phenyl)imidazolidine-2,4-dione (38)]", "values": [{"measurement": "IC50", "setting": "[1]", "result": 2.75, "unit": "nM"}]}
{"smiles": "COc1cc2c(Oc3ccc(N=Cc4c(C)[nH]n(-c5ccccc5C(F)(F)F)c4=O)cc3F)ccnc2cc1OCCCN1CCCC1", "note": "[(Z)-4-(((3-fluoro-4-((6-methoxy-7-(3-(pyrrolidin-1-yl)propoxy)quinolin-4-yl)oxy)phenyl)amino)methylene)-3-methyl-1-(2-(trifluoromethyl)phenyl)-1H-pyrazol-5(4H)-one (13)]", "values": [{"measurement": "IC50", "setting": "[1]", "result": 5.04, "unit": "nM"}]}
{"smiles": "COc1cc2c(Oc3ccc(N=Cc4c(C)[nH]n(-c5ccccc5C(F)(F)F)c4=O)cc3F)ccnc2cc1OCCCN1CCCCC1", "note": "[(Z)-4-(((3-fluoro-4-((6-methoxy-7-(3-(piperidin-1-yl)propoxy)quinolin-4-yl)oxy)phenyl)amino)methylene)-3-methyl-1-(2-(trifluoromethyl)phenyl)-1H-pyrazol-5(4H)-one (21)]", "values": [{"measurement": "IC50", "setting": "[1]", "result": 6.63, "unit": "nM"}]}
{"smiles": "COc1cc2c(Oc3ccc(N=Cc4c(C)[nH]n(-c5ccccc5C(F)(F)F)c4=O)cc3F)ccnc2cc1OCCCN1CCOCC1", "note": "[(Z)-4-(((3-fluoro-4-((6-methoxy-7-(3-morpholinopropoxy)quinolin-4-yl)oxy)phenyl)amino)methylene)-3-methyl-1-(2-(trifluoromethyl)phenyl)-1H-pyrazol-5(4H)-one (17)]", "values": [{"measurement": "IC50", "setting": "[2]", "result": 8.38, "unit": "nM"}, {"measurement": "IC50", "setting": "[3]", "result": 2.3, "unit": "nM"}, {"measurement": "IC50", "setting": "[4]", "result": 32.2, "unit": "nM"}, {"measurement": "IC50", "setting": "[5]", "result": 8.56, "unit": "nM"}, {"measurement": "IC50", "setting": "[6]", "result": 326, "unit": "nM"}, {"measurement": "IC50", "setting": "[7]", "result": 4.24, "unit": "nM"}, {"measurement": "IC50", "setting": "[8]", "result": "> 10000", "unit": "nM"}, {"measurement": "IC50", "setting": "[1]", "result": 2.2, "unit": "nM"}]}
{"smiles": "COc1cc2c(Oc3ccc(N=Cc4c(O)n(-c5ccccc5F)c(=O)n4C)cc3F)ccnc2cc1OCCCN1CCOCC1", "note": "[(E)-5-(((3-fluoro-4-((6-methoxy-7-(3-morpholinopropoxy)quinolin-4-yl)oxy)phenyl)amino)methylene)-3-(2-fluorophenyl)-1-methylimidazolidine-2,4-dione (40)]", "values": [{"measurement": "IC50", "setting": "[1]", "result": 8.78, "unit": "nM"}]}
